The record followed here is patent US8633164B2, “Antimicrobial peptides” (priority 2008, dated 2014).

One assay concerns LPS. In words: Animal model of endotoxicity (LPS/galactosamine endotoxic shock, mortality). Particulars: mouse, LPS + galactosamine i.p., 150 μg peptide i.p. In kind it is in vivo, mice. The text has this: The wild-type LPS of E. coli ATCC 35218 and P. aeruginosa PAO1 were obtained from the aqueous phase of a water-phenol extract and purified by treatment with chaotropic agents and detergents.
Female ICR (CD-1) mice weighing 20-23 g were randomly distributed in experimental groups (n=16). Endotoxic shock was induced in the animals by coinoculation of LPS and galactosamine following the method of Galanos et al. Specifically, each animal received an intraperitoneal injection containing a mixture of 0.3 μg of LPS and 18 mg of galactosamine resuspended in 200 μl of endotoxin-free saline.
Immediately after LPS administration, animals were intraperitoneally inoculated with 150 μg of the test peptide resuspended in 150 μl of pyrogen-free saline containing 10% dimethylformamide as solubilizing agent. To facilitate the therapeutical action of the peptide, mice so treated were gently massaged at the site of inoculation for a few seconds. Animal mortality was monitored at 6 h and 12 h postinoculation and at daily intervals for 5 days.
In each independent experiment a group of animals received 150 μl of pyrogen-free saline containing 150 μg of polymyxin B, a lipopeptide with well known antiendotoxic properties, whereas another group was left untreated.
Results of animal mortality at all experimental time points were globally analyzed using the Kaplan-Meier survival analysis. When the survival plots were parallel, data were compared by the Log-Rank test, whereas for those plots that intersected the “Breslow-Gehan-Wilcoxon”. […]

In assay [1] the test system is Acinetobacter baumanii ATCC 19606. It is filed as cell-based. As to the method:
(§1) The antibacterial activity of the peptides was determined by microdilution susceptibility assays performed in Mueller-Hinton broth. Susceptibility testing was performed following the recommendations of the Clinical Standards Institute (CLSI, formerly NCCLS) [Standards, 2000]. Peptides (2 mg/ml in 4 mM HEPES, pH 7.2) were two-fold diluted in Mueller-Hinton Broth in 96-well microtitre plates to obtain concentrations from 512 to 0.25 μg/ml in a volume of 100 μl. Bacteria were grown on Mueller-Hinton agar plates for 1 to 3 days depending on the growth rate of the bacteria, suspended in 2 ml of 0.9% saline and adjusted to 10^8 CFU/ml. The bacterial suspension was diluted 100-fold in Mueller-Hinton broth, and 0.1 ml of this new dilution (10^5 CFU) was added to the peptide dilutions. The microtiter plates were incubated at 37° C. for 24 h. The minimal inhibitory concentration (MIC) of each peptide against a given bacterial strain was regarded as the minimal concentration of the peptide which prevents the growth of that organism 24 h after inoculation. The bactericidal effect of the peptides was determined, after 24 h incubation at 37° C., by plating 10 μl of the content of non-cloudy wells onto Mueller-Hinton agar plates. Plates were incubated at 37° C. for 1 to 5 days, and a viable count was performed. The minimal bactericidal concentration (MBC) of each peptide for a given bacterial strain was regarded as the minimal concentration of the peptide which kills 99.9% of the colony-forming units (CFU) present in the final inoculum.

Assay [2] relates to Escherichia coli ATCC 25922. In kind it is cell-based. As for the experimental part:
as §1

Assay [3] deals with Staphylococcus aureus ATCC 25923. It is filed as cell-based. As to the method:
as §1

The subject of assay [4] is Stenotrophomonas Maltophilia 3998-00 CUN. It is filed as cell-based. As for the experimental part: as §1
In a further assay the test system is MRSA ATCC 43300. It is filed as cell-based, methicillin-resistant Staphylococcus aureus. As to the method: as §1
In a further assay the test system is MRSA CUN 3792-99. In kind it is cell-based, methicillin-resistant Staphylococcus aureus. As for the experimental part: as §1
The test system of another assay is HIV-1 isolate. In words: Anti-HIV action: inhibition of virus replication in T-cell line PM1. The note with it: 20 μg/ml peptide. In kind it is cell-based. As to the method:
A T-cell line (PM1) was incubated with a HIV-1 isolate and the infected cells were cultivated in peptide-containing medium. After some days the number of viruses was determined as compared to untreated cells. The number of viruses is determined by the concentrations of the HIV-capsid in the supernatant. FIG. 8 depicts the anti-HIV action of the peptides Pep19-2, -4, 6, and 8 at peptide concentrations of 1, 5, 10, and 20 μg/ml.

In brackets after ≈: the same amount, converted by molar mass. Residues, ends and D or L forms follow the SMILES beside them.

In the case of “KKFRRLKWKYKGKFWFW (Synthetic antimicrobial peptide 1Pep17-1) [Pep 17-1]”, in the assay on LPS, the “Dead mice/number of mice, 24 h” value is reported as 7/11; the “Dead mice/number of mice, 48 h” value is on record as 7/11; the “Dead mice/number of mice, 72 h” value is listed as 8/11.
Turning to `N=C(N)NCCC[C@H](NC(=O)CNC(=O)[C@H](CCCNC(=N)N)NC(=O)[C@H](Cc1ccccc1)NC(=O)[C@H](CCCCN)NC(=O)[C@H](Cc1c[nH]c2ccccc12)NC(=O)[C@H](CCCNC(=N)N)NC(=O)[C@H](Cc1ccccc1)NC(=O)[C@H](CCCNC(=N)N)NC(=O)[C@H](CCCNC(=N)N)NC(=O)[C@H](Cc1ccc(O)cc1)NC(=O)[C@H](CCCCN)NC(=O)[C@H](CCCCN)NC(=O)CN)C(=O)N[C@@H](Cc1ccccc1)C(=O)N[C@@H](Cc1c[nH]c2ccccc12)C(=O)N[C@@H](Cc1ccccc1)C(=O)N[C@@H](Cc1c[nH]c2ccccc12)C(=O)NCC(N)=O` [Pep 19-5, GKKYRRFRWKFRGRFWFWG] (H-GKKYRRFRWKFRGRFWFWG-NH2), the MIC in assay [1] came to 16 µg/mL (≈ 6.01 µM); in assay [2], 15.6 µg/mL (≈ 5.86 µM); in assay [3], 15.6 µg/mL (≈ 5.86 µM); in assay [4], 64 µg/mL (≈ 24 µM); against MRSA ATCC 43300 it was 16 µg/mL (≈ 6.01 µM); against MRSA CUN 3792-99, 16 µg/mL (≈ 6.01 µM). In assay [2], the MBC was determined as 15.6 µg/mL (≈ 5.86 µM). Also, the “% inhibition of virus replication in a T-cell line” value in the assay on HIV-1 isolate is recorded as 99%.
In the case of polymyxin B [PMB, reference compound], in the assay with LPS, the “Dead mice/number of mice, 24 h” value is given as 0/10; the “Dead mice/number of mice, 48 h” value was 0/10; the “Dead mice/number of mice, 72 h” value is 0/10.
Turning to `N=C(N)NCCC[C@H](NC(=O)[C@H](Cc1ccc(O)cc1)NC(=O)[C@H](CCCCN)NC(=O)[C@H](CCCCN)NC(=O)CN)C(=O)N[C@@H](CCCNC(=N)N)C(=O)N[C@@H](Cc1ccccc1)C(=O)N[C@@H](Cc1c[nH]c2ccccc12)C(=O)N[C@@H](CCCCN)C(=O)N[C@@H](Cc1ccccc1)C(=O)N[C@@H](CCCCN)C(=O)NCC(=O)N[C@@H](CCCCN)C(=O)N[C@@H](Cc1c[nH]c2ccccc12)C(=O)N[C@@H](Cc1ccccc1)C(=O)N[C@@H](Cc1ccccc1)C(=O)N[C@@H](Cc1c[nH]c2ccccc12)C(=O)NCC(N)=O` [Pep 19-7, GKKYRRFWKFKGKWFFWG] (H-GKKYRRFWKFKGKWFFWG-NH2), the MIC is 16 µg/mL (≈ 6.53 µM) in assay [1]; more than 500 µg/mL in assay [2]; more than 500 µg/mL in assay [3]; 645 µg/mL (≈ 263 µM) in assay [4]; 16 µg/mL (≈ 6.53 µM) in the assay with MRSA ATCC 43300; 16 µg/mL (≈ 6.53 µM) in the assay on MRSA CUN 3792-99. Moreover, the MBC in assay [2] and in assay [3] was more than 500 µg/mL throughout.
For `CC(C)C[C@H](NC(=O)[C@H](Cc1c[nH]c2ccccc12)NC(=O)[C@H](CC(C)C)NC(=O)[C@H](CCCCN)NC(=O)[C@H](CCC(N)=O)NC(=O)[C@H](CCCCN)NC(=O)[C@H](CS)NC(=O)[C@H](CCCCN)NC(=O)[C@H](CC(C)C)NC(=O)[C@H](CCCCN)NC(=O)[C@H](Cc1ccccc1)NC(=O)[C@H](CCCNC(=N)N)NC(=O)[C@H](CCCNC(=N)N)NC(=O)[C@H](Cc1ccccc1)NC(=O)[C@H](CCCCN)NC(=O)[C@H](CCCCN)NC(=O)[C@H](CS)NC(=O)CN)C(=O)N[C@@H](Cc1c[nH]c2ccccc12)C(=O)N[C@@H](CS)C(=O)NCC(N)=O` [Pep 19-6] (H-GCKKFRRFKLKCKQKLWLWCG-NH2), the MIC in assay [1] is 64 µg/mL (≈ 24.1 µM); in assay [2] it was more than 500 µg/mL; in assay [3], more than 500 µg/mL; in assay [4], 1024 µg/mL (≈ 385 µM); in the assay with MRSA ATCC 43300, 64 µg/mL (≈ 24.1 µM); in the assay with MRSA CUN 3792-99, 32 µg/mL (≈ 12 µM). Also, the MBC in assay [2] and in assay [3] was more than 500 µg/mL throughout.
Take `N=C(N)NCCC[C@H](NC(=O)[C@H](Cc1ccc(O)cc1)NC(=O)[C@H](CCCCN)NC(=O)[C@H](CCCCN)NC(=O)[C@H](CS)NC(=O)CN)C(=O)N[C@@H](CCCNC(=N)N)C(=O)N[C@@H](Cc1ccccc1)C(=O)N[C@@H](CCCNC(=N)N)C(=O)N[C@@H](Cc1c[nH]c2ccccc12)C(=O)N[C@@H](CCCCN)C(=O)N[C@@H](Cc1ccccc1)C(=O)N[C@@H](CCCCN)C(=O)NCC(=O)N[C@@H](CCCCN)C(=O)N[C@@H](Cc1ccccc1)C(=O)N[C@@H](Cc1c[nH]c2ccccc12)C(=O)N[C@@H](Cc1ccccc1)C(=O)N[C@@H](Cc1c[nH]c2ccccc12)C(=O)N[C@@H](CS)C(=O)NCC(N)=O` [Pep 19-2] (H-GCKKYRRFRWKFKGKFWFWCG-NH2): in the assay with LPS, the “Dead mice/number of mice, 24 h” value was 0/10. In the assay with LPS, the “Dead mice/number of mice, 48 h” value is listed as 0/10. In addition, in the assay on LPS, the “Dead mice/number of mice, 72 h” value is 0/10. Moreover, the MIC in assay [1] was found to be 64 µg/mL (≈ 22.7 µM); in assay [2], 128 µg/mL (≈ 45.5 µM); in assay [3], 128 µg/mL (≈ 45.5 µM); in assay [4], 512 µg/mL (≈ 182 µM); in the assay with MRSA ATCC 43300, 128 µg/mL (≈ 45.5 µM); with MRSA CUN 3792-99, 1024 µg/mL (≈ 364 µM). The MBC in assay [2] and in assay [3] was 512 µg/mL (≈ 182 µM) throughout.
For the compound `N=C(N)NCCC[C@H](NC(=O)CNC(=O)[C@H](CCCCN)NC(=O)[C@H](Cc1ccccc1)NC(=O)[C@H](CCCCN)NC(=O)[C@H](Cc1c[nH]c2ccccc12)NC(=O)[C@H](CCCNC(=N)N)NC(=O)[C@H](Cc1ccccc1)NC(=O)[C@H](CCCCN)NC(=O)[C@H](CCCCN)NC(=O)[C@H](Cc1ccc(O)cc1)NC(=O)[C@H](CCCNC(=N)N)NC(=O)[C@H](CCCNC(=N)N)NC(=O)CN)C(=O)N[C@@H](Cc1c[nH]c2ccccc12)C(=O)N[C@@H](Cc1ccccc1)C(=O)N[C@@H](Cc1c[nH]c2ccccc12)C(=O)N[C@@H](Cc1ccccc1)C(=O)NCC(N)=O` [Pep 19-8, GRRYKKFRWKFKGRWFWFG] (H-GRRYKKFRWKFKGRWFWFG-NH2), the MIC was 16 µg/mL (≈ 6.07 µM) in assay [1], 32 µg/mL (≈ 12.1 µM) in assay [4], 8 µg/mL (≈ 3.03 µM) in the assay on MRSA ATCC 43300 and 8 µg/mL (≈ 3.03 µM) in the assay on MRSA CUN 3792-99. In addition, the “% inhibition of virus replication in a T-cell line” value in the assay on HIV-1 isolate came to 99%.
As for “KKYRRFRWKFKGKFWFW (Synthetic antimicrobial peptide 1Pep17-2) [Pep 17-2]”, in the assay with LPS, the “Dead mice/number of mice, 24 h” value is recorded as 7/10; the “Dead mice/number of mice, 48 h” value is recorded as 7/10; the “Dead mice/number of mice, 72 h” value is listed as 8/11.
For the compound `N=C(N)NCCC[C@H](NC(=O)[C@H](Cc1ccc(O)cc1)NC(=O)[C@H](CCCCN)NC(=O)[C@H](CCCCN)NC(=O)CN)C(=O)N[C@@H](CCCNC(=N)N)C(=O)N[C@@H](Cc1ccccc1)C(=O)N[C@@H](CCCNC(=N)N)C(=O)N[C@@H](Cc1c[nH]c2ccccc12)C(=O)N[C@@H](CCCCN)C(=O)N[C@@H](Cc1ccccc1)C(=O)N[C@@H](CCCCN)C(=O)NCC(=O)N[C@@H](CCCCN)C(=O)N[C@@H](Cc1c[nH]c2ccccc12)C(=O)N[C@@H](Cc1ccccc1)C(=O)N[C@@H](Cc1c[nH]c2ccccc12)C(=O)N[C@@H](Cc1ccccc1)C(=O)NCC(N)=O` [Pep 19-4, GKKYRRFRWKFKGKWFWFG] (H-GKKYRRFRWKFKGKWFWFG-NH2), the MIC came out at 16 µg/mL (≈ 6.13 µM) in assay [1]; 15.6 µg/mL (≈ 5.98 µM) in assay [3]; 32 µg/mL (≈ 12.3 µM) in assay [4]; 16 µg/mL (≈ 6.13 µM) against MRSA ATCC 43300; 16 µg/mL (≈ 6.13 µM) against MRSA CUN 3792-99. The compound further had an MBC in assay [2] of 15.6 µg/mL (≈ 5.98 µM).

As usually defined, the MIC is the smallest concentration in the dilution series that meets the test's criterion for growth inhibition. Lower therefore signals a more susceptible organism. In general, MBC refers to the lowest tested concentration that kills the bacteria rather than only halting them. Read a low MBC as greater bactericidal potency.
